These compounds were tested against T1, human NEP (Homo sapiens, UniProt P08473) (assay: In vitro enzyme inhibition assay, inhibitor potency at human NEP). Conditions: pKi values at human NEP; recombinant human NEP, fluorogenic peptide substrate 10 μM, 37° C.
T1 construct: purchased R&D Systems, Minneapolis, Minn; 1182-ZN
Format: biochemical
Protocol: The inhibitory activities of compounds at human and rat neprilysin (EC 3.4.24.11; NEP) and human angiotensin converting enzyme (ACE) were determined using in vitro assays as described below.
Recombinant human NEP and recombinant human ACE were obtained commercially (R&D Systems, Minneapolis, Minn., catalog numbers 1182-ZN and 929-ZN, respectively). The fluorogenic peptide substrate Mca-D-Arg-Arg-Leu-Dap-(Dnp)-OH (Medeiros et al. (1997) Braz. J. Med. Biol. Res. 30:1157-62; Anaspec, San Jose, Calif.) and Abz-Phe-Arg-Lys(Dnp)-Pro-OH (Araujo et al. (2000) Biochemistry 39:8519-8525; Bachem, Torrance, Calif.) were used in the NEP and ACE assays respectively.
The assays were performed in 384-well white opaque plates at 37° C. using the fluorogenic peptide substrates at a concentration of 10 μM in Assay Buffer (NEP: 50 mM HEPES, pH 7.5, 100 mM NaCl, 0.01% polyethylene glycol sorbitan monolaurate (Tween-20), 10 μM ZnSO4; ACE: 50 mM HEPES, pH 7.5, 100 mM NaCl, 0.01% Tween-20, 1 μM ZnSO4).
Test compounds were assayed over the range of concentrations from […] to 20 μM. Test compounds were added to the enzymes and incubated for 30 minute at 37° C. prior to initiating the reaction by the addition of substrate. Reactions were terminated after 20 minutes of incubation at 37° C. by the addition of glacial acetic acid to a final concentration of 3.6% (v/v).
Plates were read on a fluorometer with excitation and emission wavelengths set to 320 nm and 405 nm, respectively. Inhibition constants were obtained by nonlinear regression of the data using the equation (GraphPad Software, Inc., San Diego, Calif.): v=v0/[1+(I/K′)] where v is the reaction rate, v0 is the uninhibited reaction rate, I is the inhibitor concentration and K′ is the apparent inhibition constant.
Compounds of the invention were tested in this assay and found to have pKi values at human NEP as follows.

T1 sequence (P08473 whole entry): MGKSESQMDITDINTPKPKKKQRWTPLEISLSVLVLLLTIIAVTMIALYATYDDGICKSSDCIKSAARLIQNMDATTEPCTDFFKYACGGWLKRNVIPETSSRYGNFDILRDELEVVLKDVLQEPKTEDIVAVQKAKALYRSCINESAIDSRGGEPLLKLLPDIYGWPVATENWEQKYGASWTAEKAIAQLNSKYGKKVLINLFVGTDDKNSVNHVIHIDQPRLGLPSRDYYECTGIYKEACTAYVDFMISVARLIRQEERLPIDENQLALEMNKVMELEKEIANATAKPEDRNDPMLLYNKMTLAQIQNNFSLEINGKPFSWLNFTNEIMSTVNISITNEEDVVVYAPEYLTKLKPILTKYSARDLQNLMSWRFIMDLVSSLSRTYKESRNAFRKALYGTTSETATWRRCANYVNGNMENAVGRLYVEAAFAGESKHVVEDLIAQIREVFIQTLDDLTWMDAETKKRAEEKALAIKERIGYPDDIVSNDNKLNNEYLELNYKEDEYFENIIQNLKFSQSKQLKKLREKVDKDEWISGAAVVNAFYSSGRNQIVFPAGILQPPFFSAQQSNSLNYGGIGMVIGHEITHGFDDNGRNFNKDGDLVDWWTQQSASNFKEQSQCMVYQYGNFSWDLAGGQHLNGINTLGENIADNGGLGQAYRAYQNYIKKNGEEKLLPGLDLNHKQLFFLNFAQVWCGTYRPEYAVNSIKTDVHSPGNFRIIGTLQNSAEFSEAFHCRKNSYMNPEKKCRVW

| Ki [nM] | SMILES |
| --- | --- |
| 1.26 to 10 | O=C(N[C@H](Cc1ccccc1)[C@@H](O)C(=O)O)c1cncc(-c2ccccc2C(=O)O)c1 [Example 5-25, 2-[5-((1R,2R)-1-Benzyl-2-carboxy-2-hydroxy-ethylcarbamoyl)-pyridin-3-yl]-benzoic acid] |
| 1.26 to 10 | O=C(N[C@H](Cc1ccccc1)[C@@H](O)C(=O)O)c1cc(-c2ccccc2C(=O)O)ccn1 [Example 5-26, 2-[2-((1R,2R)-1-Benzyl-2-carboxy-2-hydroxy-ethylcarbamoyl)-pyridin-4-yl]-benzoic acid] |
| 12.6 to 100 | O=C(N[C@H](Cc1ccccc1)[C@@H](O)C(=O)O)c1cnc2nn[nH]c2c1 [Example 5-29, (2R,3R)-2-Hydroxy-4-phenyl-3-[(1H-[1,2,3]triazolo[4,5-b]pyridine-6-carbonyl)-amino]-butyric acid] |
| 12.6 to 100 | O=C(N[C@H](Cc1ccccc1)[C@@H](O)C(=O)O)c1cc2cccn2cn1 [Example 5-30, (2R,3R)-2-Hydroxy-4-phenyl-3-[(pyrrolo[1,2-c]pyrimidine-3-carbonyl)-amino]-butyric acid] |
| 1.26 to 10 | O=C(O)c1ccc(C(=O)N[C@H](Cc2ccccc2)[C@@H](O)C(=O)O)s1 [Example 5-31, 5-((1R,2R)-1-Benzyl-2-carboxy-2-hydroxy-ethylcarbamoyl)-thiophene-2-carboxylic acid] |
| 1.26 to 10 | O=C(O)C[C@@H](Cc1ccccc1Cl)NC(=O)c1cc(-c2ccccc2C(=O)O)ccn1 [Example 6, 2-{2-[(R)-1-Carboxymethyl-2-(2-chloro-phenyl)-ethylcarbamoyl]-pyridin-4-yl}-benzoic Acid] |
| 12.6 to 100 | O=C(O)C[C@@H](Cc1ccccc1Cl)NC(=O)c1cnn[nH]1 [Example 7-1, (R)-4-(2-Chloro-phenyl)-3-[(3H-[1,2,3]triazole-4-carbonyl)-amino]-butyric acid] |
| 12.6 to 100 | Cc1cc(C(=O)N[C@@H](CC(=O)O)Cc2ccccc2Cl)cc2[nH]nnc12 [Example 7-2, (R)-4-(2-Chloro-phenyl)-3-[(7-methyl-3H-benzotriazole-5-carbonyl)-amino]-butyric acid] |
| 12.6 to 100 | O=C(O)C[C@@H](Cc1ccccc1Cl)NC(=O)c1ccc2nn[nH]c2c1 [Example 7-3, (R)-3-[(3H-Benzotriazole-5-carbonyl)-amino]-4-(2-chloro-phenyl)-butyric acid] |
| 12.6 to 100 | O=C(O)C[C@@H](Cc1ccccc1Cl)NC(=O)c1cc(Cl)c2nn[nH]c2c1 [Example 7-4, (R)-3-[(7-Chloro-3H-benzotriazole-5-carbonyl)-amino]-4-(2-chloro-phenyl)-butyric acid] |
| 12.6 to 100 | O=C(O)C[C@@H](Cc1ccccc1Cl)NC(=O)c1cc(F)c2[nH]nnc2c1 [Example 7-6, (R)-4-(2-Chloro-phenyl)-3-[(7-fluoro-1H-benzotriazole-5-carbonyl)-amino]-butyric acid] |
| 12.6 to 100 | O=C(O)C[C@@H](Cc1ccccc1Cl)NC(=O)c1cnc2nn[nH]c2c1 [Example 7-7, (R)-4-(2-Chloro-phenyl)-3-[(1H-[1,2,3]triazolo[4,5-b]pyridine-6-carbonyl)-amino]-butyric acid] |
| 1.26 to 10 | O=C(O)C[C@@H](Cc1ccccc1Cl)NC(=O)c1cnc(O)nc1 [Example 7-8, (R)-4-(2-Chloro-phenyl)-3-[(2-hydroxy-pyrimidine-5-carbonyl)-amino]-butyric acid] |
| 12.6 to 100 | O=C(O)C[C@@H](Cc1ccccc1Cl)NC(=O)c1ccc(-c2ccccc2C(=O)O)nn1 [Example 7-9, 2-{6-[(R)-2-Carboxy-1-(2-chloro-benzyl)-ethylcarbamoyl]-pyridazin-3-yl}-benzoic acid] |
